For one data set, the system named is C. albicans ATCC 90028. Put plainly: microbe, parasite or virus in culture. The settings on record: Candida albicans, ATCC90028. On the procedure:
(§1) The MIC values were determined according to the European Committee on Antimicrobial Susceptibility Testing (EUCAST) protocol ([36]) and are shown on Table 4.
(§2) (iii) Antifungal activity.

The next data set relates to C. glabrata ATCC 90030. Put plainly: microbe, parasite or virus in culture. The settings on record: Nakaseomyces glabratus, ATCC90030. The procedure:
as §1, §2

Data set [1] relates to C. parapsilosis ATCC 22019. Briefly: microbe, parasite or virus in culture. Conditions: Lodderomyces parapsilosis, ATCC22019. On the procedure:
as §1, §2

The next data set relates to E. coli ATCC 25922. Put plainly: microbe, parasite or virus in culture. On the procedure: (§3) The antimicrobial activity of the IL-KTTKS conjugates was assessed in vitro against reference bacterial strains (American Type Culture Collection, ATCC). The minimal inhibitory concentration (MIC) was determined according to the Clinical and Laboratory Standards Institute (CLSI) guidelines ([28]) against Gram-positive (S. aureus, Enterococcus faecalis) and Gram-negative (Escherichia coli, Pseudomonas aeruginosa) bacteria.
(§4) (i) Antibacterial activity in standard conditions. The test conjugates and reference compounds were evaluated for their activity against three reference strains of Gram-negative bacteria, namely, E. coli (ATCC 25922), Pseudomonas aeruginosa (ATCC 27853), and Klebsiella pneumoniae (ATCC 13883), and the four following reference strains of Gram-positive bacteria, Staphylococcus aureus (ATCC 29213), S. Epidermidis (ATCC 14990), E. faecalis (ATCC 29212), and Streptococcus pyogenes (ATCC 19615). […] MBC values were also determined as previously reported ([52]).

The next data set concerns E. faecalis ATCC 29212. Put plainly: microbe, parasite or virus in culture. The procedure: as §3, §4
The subject of another data set is P. aeruginosa ATCC 27853. Briefly: microbe, parasite or virus in culture. The procedure:
as §3, §4

The subject of a further data set is S. aureus ATCC 29213. Briefly: microbe, parasite or virus in culture. The procedure: as §3, §4
For data set [2], the system named is HaCaT cells (human immortalized keratinocytes). Put plainly: cells. Format: cell-based. The procedure: (§5) The cytotoxicity of KTTK(C16Im)S and C16Im-KTTKS conjugates was assessed on human foreskin fibroblasts (HFF-1) and human immortalized keratinocytes (HaCaT). […] In turn, the parent IL [C16 M1Im][Br] and its […] equimolar mixture with PP4, KTTKS:[C16 M1Im][Br]
(§6) (iv) Toxicity to human cells. HaCat and HFF-1 were seeded at 4 × 10^4cell/mL in 96-well plate using in Dulbecco’s Modified Eagle Medium (DMEM; CLS) supplemented with 2% FBS (Biowest) and 1% of antibiotic/antimycotic solution (100 units/mL of penicillin, 10 mg/mL of streptomycin, and 0.25 mg/mL of amphotericin B, Sigma-Aldrich). The plate was incubated at 37°C in a 5% CO2 atmosphere, and the cells allowed to grow until confluence was reached. Then, solutions of the test compounds in DMEM supplemented with 2% FBS, in a concentration range between 6.3 and 100 μM, were added to the wells. After 24 h of incubation at 37°C in a 5% CO2 atmosphere, the cell viability was assessed through the resazurin reduction assay. Briefly, the medium was removed and then 20 μL of the alamarBlue Cell Viability Reagent (Resazurin sodium salt, Sigma-Aldrich) at 0.15 mg/mL in 100 μL of Hank’s Balanced Salt Solution (HBSS; Sigma-Aldrich) were added to each well; the plate was next incubated for 2 h at 37°C in a 5% CO2 atmosphere, after which fluorescence was read at 560/590 nm on a Flex Station 3 multi-mode microplate reader (Molecular Devices) ([53]). The IC50 values were thus determined using the GraphPad Prism 9.0 software, by applying the equation log(inhibitor) versus response with variable slope (four parameters).

In data set [3] the test system is HFF-1 cells (human foreskin fibroblasts). It counts as cell-based. The settings on record: 24 h. The procedure:
as §5, §6

Data set [4] is classed as physicochemical. The procedure: as §3
(vi) Quantitation of final peptides and their IL conjugates. Peptide stock solutions were prepared at approximately 10 mg/mL in distilled water except for C16-KTTKS-OH that was solubilized in DMSO. Accurate quantitation of the peptide solutions were quantitated by microvolume spectrophotometry at 205 nm, using a Thermo Scientific NanoDrop One system and quantitation method 31 that assumes an extinction coefficient ε205 of 31 mL·mg^−1·cm^−1 ([50]). […] To this end, the peptide was hydrolyzed using 6 M aqueous hydrochloric acid containing phenol (10% vol/vol), for 24 h at 110°C. The hydrolysate was next evaporated to dryness and the residue dissolved in HPLC-grade water (500 μL) containing α-aminobutyric acid as internal standard. The mixture thus obtained was then derivatized by the AccQ-Tag protocol from Waters using 6-aminoquinoyl-N-hydroxysuccinimidyl carbamate ([51]), and the resulting solution analyzed by HPLC (WATERS 600) with the UV-detector (WATERS 2487) set at 254 nm.

The test system of a further data set is K. pneumonia ATCC 138830. Put plainly: microbe, parasite or virus in culture. Conditions: Klebsiella pneumoniae, ATCC138830. On the procedure:
as §3, §4

Where [5] appears, read: E. coli ATCC 25922, broth microdilution in cation-adjusted MHB2, CLSI, n = 3.
[6] abbreviates: E. faecalis ATCC 29212, broth microdilution in cation-adjusted MHB2, CLSI, n = 3.
[7] abbreviates: P. aeruginosa ATCC 27853, broth microdilution in cation-adjusted MHB2, CLSI, n = 3.
[8] abbreviates: S. aureus ATCC 29213, broth microdilution in cation-adjusted MHB2, CLSI, n = 3.
Where [9] appears, read: Enterococcus faecalis, ATCC29212.
The mark [10] stands for this setting: Staphylococcus aureus, ATCC29213.

Converted amounts (≈) assume the structure as drawn. “And” between values parts separate entries of the source, which are not always exact repeats. Equal values may be shown once. Read-outs that look alike come from different tables or passages of the source. Peptide text beside a SMILES is read from it. * marks the point of attachment. X2 = Cn1cc[n+](Cc2cn(CC(=O)*)nn2)c1; Palmitoyl = CCCCCCCCCCCCCCCC(=O)*

As for `OC(Cn1cncn1)(Cn1cncn1)c1ccc(F)cc1F` [Fluconazole, reference compound], the MIC against C. albicans ATCC 90028 was 1.6 µM (≈ 0.49 µg/mL); against C. glabrata ATCC 90030 it was 26 µM (≈ 7.96 µg/mL); in [1], 6.5 µM (≈ 1.99 µg/mL).
On to `C[C@@H](O)[C@H](NC(=O)[C@@H](NC(=O)[C@@H](N)CCCCn1cc(C[n+]2ccn(C)c2)nn1)[C@@H](C)O)C(=O)N[C@@H](CCCCn1cc(C[n+]2ccn(C)c2)nn1)C(=O)N[C@@H](CO)C(N)=O` [K(MeIm)TTK(MeIm)S], for which the MIC in the data set on E. coli ATCC 25922 (setting [5]) is > 1245.5 μM and > 1067.4 μg/mL; against E. faecalis ATCC 29212 (setting [6]), > 1245.5 μM and > 1067.4 μg/mL; against P. aeruginosa ATCC 27853 (setting [7]), > 1245.5 μM and > 1067.4 μg/mL; against S. aureus ATCC 29213 (setting [8]) it was > 1245.5 μM and > 1067.4 μg/mL.
In the case of `C[C@@H](O)[C@H](NC(=O)[C@@H](NC(=O)[C@@H](N)CCCCn1cc(C[n+]2ccn(C)c2)nn1)[C@@H](C)O)C(=O)N[C@@H](CCCCN)C(=O)N[C@@H](CO)C(N)=O` [K(MeIm)TTKS], the MIC in the data set on E. coli ATCC 25922 (setting [5]) was > 1030.1 μM and > 731.2 μg/mL; with E. faecalis ATCC 29212 (setting [6]) it was > 1030.1 μM and > 731.2 μg/mL; against P. aeruginosa ATCC 27853 (setting [7]) it was > 1030.1 μM and > 731.2 μg/mL; with S. aureus ATCC 29213 (setting [8]) it was > 1030.1 μM and > 731.2 μg/mL.
In the case of `CCCCCCCCCCCCCCn1cc[n+](Cc2cn(CCCC[C@H](NC(=O)[C@@H](NC(=O)[C@@H](NC(=O)[C@@H](N)CCCCN)[C@@H](C)O)[C@@H](C)O)C(=O)N[C@@H](CO)C(N)=O)nn2)c1` [KTTK(C14Im)S], the MIC in the data set on E. coli ATCC 25922 (setting [5]) is 29.5 μM and 26.3 μg/mL; in the data set with E. faecalis ATCC 29212 (setting [6]) it was 58.9 μM and 52.6 μg/mL; with P. aeruginosa ATCC 27853 (setting [7]), 58.9 μM and 52.6 μg/mL; against S. aureus ATCC 29213 (setting [8]) it was 29.5 μM and 26.3 μg/mL.
`C[C@@H](O)[C@H](NC(=O)[C@@H](NC(=O)[C@@H](N)CCCCN)[C@@H](C)O)C(=O)N[C@@H](CCCCn1cc(C[n+]2ccn(C)c2)nn1)C(=O)N[C@@H](CO)C(N)=O` [KTTK(MeIm)S]: the MIC in the data set on E. coli ATCC 25922 (setting [5]) is > 954.2 μM and > 677.3 μg/mL; against E. faecalis ATCC 29212 (setting [6]), > 954.2 μM and > 677.3 μg/mL; in the data set on P. aeruginosa ATCC 27853 (setting [7]), > 954.2 μM and > 677.3 μg/mL; with S. aureus ATCC 29213 (setting [8]), > 954.2 μM and > 677.3 μg/mL.
With `C[C@@H](O)[C@H](NC(=O)[C@H](CCCCN)NC(=O)Cn1cc(C[n+]2ccn(C)c2)nn1)C(=O)N[C@H](C(=O)N[C@@H](CCCCN)C(=O)N[C@@H](CO)C(N)=O)[C@@H](C)O` [MeIm-KTTKS] (X2-KTTKS-NH2), the MIC against E. coli ATCC 25922 (setting [5]) was > 825.9 μM and > 633.4 μg/mL; against E. faecalis ATCC 29212 (setting [6]) it was > 825.9 μM and > 633.4 μg/mL; in the data set on P. aeruginosa ATCC 27853 (setting [7]), > 825.9 μM and > 633.4 μg/mL; against S. aureus ATCC 29213 (setting [8]), > 825.9 μM and > 633.4 μg/mL.
Regarding `CCCCCCCCCCCCCCCC(=O)N[C@@H](CCCCN)C(=O)N[C@H](C(=O)N[C@H](C(=O)N[C@@H](CCCCN)C(=O)N[C@@H](CO)C(=O)O)[C@@H](C)O)[C@@H](C)O` [Peptide C16-KTTKS-OH] (Palmitoyl-KTTKS-OH), the IC50 (in general, the concentration needed to halve the response being measured) in data set [2] (24 h) is above 100 µM. The half-maximal inhibitory concentration (IC50) in data set [3] is 79.7 ± 2.82 µM. In data set [4], the “Behaviour when diluted in cation-adjusted Mueller-Hinton broth (MHB2)” value is “precipitated”, the Solubility in water result is recorded as “poor solubility in water” and the “Solvent in which the peptide was soluble” value was “dimethyl sulfoxide (DMSO)”.
For `CCCCCCCCCCCCCCCCn1cc[n+](C)c1` [[C16 M1Im][Br], 1-hexadecyl-3-methylimidazolium bromide, reference compound], the MIC with E. coli ATCC 25922 (Escherichia coli, ATCC25922) is 60 µM; in the data set on E. faecalis ATCC 29212 (setting [9]), 0.94 µM; against K. pneumonia ATCC 138830 it was 60 µM; in the data set on P. aeruginosa ATCC 27853 (Pseudomonas aeruginosa, ATCC27853), above 240 µM; against S. aureus ATCC 29213 (setting [10]), 0.94 µM; in the data set on C. albicans ATCC 90028 it was 0.93 µM. Further, the MIC (against C. glabrata ATCC 90030; in [1]) was 0.93 µM throughout. Besides, the MBC stood at 15 µM against E. faecalis ATCC 29212 (setting [9]) and 30 µM against S. aureus ATCC 29213 (setting [10]). Further, in data set [2] (Homo sapiens, HaCaT, 24 h incubation, 6.3-100 μM, resazurin, mean ± SEM of 2 independent experiments (n = 8), read-out: IC50 ± SEM), the IC50 amounted to 6.27 ± 1.02 µM.
For the compound “C16-KTTKS-NH2 [C-terminal carboxamide analogue of Matrixyl]”, in data set [4], the “Behaviour when diluted in cation-adjusted Mueller-Hinton broth (MHB2)” value was “precipitated” and the “Solvent in which the peptide was soluble” value was “water”.

The record behind these values is publication PMC9431032, “Boosting Cosmeceutical Peptides: Coupling Imidazolium-Based Ionic Liquids to Pentapeptide-4 Originates New Leads with Antimicrobial and Collagenesis-Inducing Activities” (Microbiology Spectrum, 2022).
